Assay results from patent US6365616B1, “Methimazole derivatives and tautomeric cyclic thiones to treat autoimmune diseases” (Sentron Medical, Inc., priority 1998, dated 2002).

Assays:
[1] = system: protein/DNA complex with Fragment 127 of the MHC class I 5′-flanking region; assay: Gel shift (EMSA) with downstream 127 class I probe, extracts from treated FRTL-5 cells; format: cell-based, rat; details: 5H cells treated 48 hours
Protocol: (§1) Cells were grown in 6H medium with 5 % calf serum for 6-7 days to 70-80% confluence, then shifted to 5H medium with 5 % calf serum for 5 days. TSH (1×10^−10 M), gamma-interferon (100 U/ml), MMI (5 mM), and different concentrations of MMI derivatives or tautomeric cyclic thiones (0.0001 to 10 mM) were added as appropriate for […]. Cells were then harvested and extracts were made by a modification of a method of Dignam, J., et al. Methods in Enzymology, 101:582-598 (1983). In brief, cells were harvested by scraping after being washed twice with cold phosphate-buffer saline (PBS). Subsequently they were pelleted, washed in cold PBS and then pelleted again. The pellet was resuspended in Dignam buffer C (20 mM Hepes buffer at pH 7.9, 1.5 mM MgCl2, 0.42 M NaCl, 25% glycerol, 0.5 mM dithiotreitol (DTT), 0.5 mM phenylmethylsulfonylfluoride (PMSF), 1 […] pepstatin). The final NaCl concentration was adjusted on the basis of cell pellet volume to 0.42 M and cells were lysed by repeated cycles of freezing and thawing. Extracts were then centrifuged at 10,000×g at 4° C. for 20 min. The supernatant was recovered, aliquoted and stored at −70° C.
Binding reactions were performed in a volume of 20 μl for 30 min at room temperature. The typical reaction mixture contained 1.5 fmol of ^32P DNA, 3 μg of cell extracts, 1 to 3 μg of poly (dI-dC) in 10 mM Tris-Cl (pH 7.9), 1 mM MgCl2, 1 mM DTT, 1 mM ethylenediamine tetra acetic acid (EDTA), and 5 % glycerol. After incubation, reaction mixtures were subjected to electrophoresis in 4% polyacrylamide gels for 90-120 min at 160 V in 0.5× TBE (Sambrook, J., et al., Molecular Cloning: A Laboratory Manual, 2nd ed. Cold Spring Harbor Press, NY, 2: 11.23-11.44 (1989)), then dried and autoradiographed. Probes were labeled with [α32P] deoxy CTP by Klenow enzyme (In Vitro labeling kit, Amersham) following the manufacturer's instructions, or by [γ^32P] ATP using T4 polynucleotide kinase. Labeled probes were then purified either through G-50 columns (5 prime→3 Prime) or on an 8% polyacrylamide gel.
FIG. 3 denotes the sequence of the downstream region of the PD1 promoter. The location of enhancer A (−180 to −170 bp), the interferon response element (IRE; −161 to −150 bp), and the cAMP response element (CRE; −107 to −100 bp) are noted. The downstream silencer is between −127 and −80 bp (Saji, et al., ibid, 20096-20107 (1997)). Using a 127 bp probe, −125 to +1 bp, MMI (lane 4) or TSH (lane 10) induce the formation of a rapidly migrating protein/DNA complex (FIG. 4) which is clearly evident 24 to 48 h after SH cells are treated. MMI derivatives can also increase this complex, as illustrated for compound 8 in FIG. 4 (lanes 1 to 3). The time most suitable for measurement is 24 to 48 h (FIG. 4) the complex can be quantitated by comparison to control (lane 7 or 9) using densitometry or the phosphoimager as noted earlier. In this case, the increase over control (set at 1) is measured in arbitrary units relative to the maximal increase induced by 5 mM MMI which is arbitrarily set at 10. The results using all 11 compounds in Table 1, each added to cells at different concentrations 48 hours before extracts were prepared, are summarized in Table 3.

[2] = system: γ-IFN-increased protein/DNA complex with DRα 5′-flanking region probe; assay: Gel shift (EMSA) with 137 class II probe, extracts from γ-IFN-treated FRTL-5 cells; format: cell-based, rat; details: for % inhibition of IFN-increased complex formation: 137 class II probe, γ-IFN-treated 5H cells
Protocol: as §1
Cell extracts to perform class II gel shift studies were prepared exactly as for class I studies (Dignam et al., ibid, 582-598 (1983); Giuliani C, et al., J. Biol. Chem. 270: 11453-11462 (1995); Saji M, et al., J. Biol. Chem. 272: 20096-20107 (1997); Montani, V., et al., Endocrinology 139: 280-289 (1998a); Montani, V., et al., Endocrinology 139: 290-302 (1998b)), with the exception that the extracts were from γ-interferon treated cells, usually 100 U/ml interferon for 24 to 48 hours. Similarly, electrophoretic mobility shift assays (EMSA) were performed in the same way. Oligonucleotides used for EMSA were synthesized (Operon Technologies, Inc.) or were purified from 2 % agarose gels using either QIAEX (Qiagen, Chatsworth, Calif.) or Jet Sorb (Genomed) following restriction enzyme treatment of chimeric HLA-DRα-CAT constructs (Montani et al., 1998a, b). The oligonucleotides were dephosphorylated with calf intestinal alkaline phosphatase, labeled with […] or with [γ-^32P]ATP using T4 polynucleotide kinase, then purified on an 8% native polyacrylamide gel (Giuliani C, et al., ibid, 11453-11462 (1995); Saji M, et al., ibid, 20096-20107 (1997); Sambrook J, et al., ibid, 2:11.23-11.44 (1989); Montani, V., et al., ibid, 280-289 (1998a), 290-302 (1998b)).
Binding reactions for class II EMSA used similar conditions as well. They were carried out in a volume of 20 μl for 30 min at room temperature. The reaction mixtures contained 1.5 fmol of [^32P]DNA, 3 μg cell extract and 1.5 to 3 μg poly(di-dC) in 10 mM Tris-Cl at pH 7.9, 1 mM MgCl2, 1 mM DTT, 1 mM EDTA, and 5% glycerol. Where indicated, unlabeled double- or single-stranded oligonucleotides were added to the binding reaction as competitors and incubated with the extract for 20 min at room temperature prior to the addition of labeled DNA. Similarly, in experiments using antiserum, extracts were also incubated in the same buffer containing antiserum or normal rabbit serum for 20 min at room temperature before being processed as above. Following incubations, reaction mixtures were subjected to electrophoresis on 3.5 or 5 % native polyacrylamide gels at 160 V in 0.5xTBE, at room temperature, for 1.5 to 2 h. Gels were dried and autoradiographed at -80° C overnight unless otherwise noted.
FIG. 7 depicts the effect of MMI on the ability of γ-IFN to increase the formation of protein/DNA complexes with the […] DR α5′-flanking region probe. The radiolabeled probe is the same as that used and diagrammatically presented in FIG. 6; it contains −137 bp to +45 bp of the 5′-flanking region of DRα-CAT chimera. Extracts were from FRTL-5 rat thyroid cells grown to near confluency in TSH, maintained 6 days in SH medium, then treated with 100 U/ml γ-IFN, 5 mM MMI, or both for the last 48 h before the experiment was terminated. […]

Compound: Cn1c(-c2ccccc2)cnc1S [Compound 10, 5-Phenylmethimazole]
- % increase over control relative to the maximal (5 mM) MMI-increased silencer complex which is set at 10 ([1]; 10 μM): 3 ± 1.5%
- % increase over control relative to the maximal (5 mM) MMI-increased silencer complex which is set at 10 ([1]; 100 μM): 7 ± 1%
- % increase over control relative to the maximal (5 mM) MMI-increased silencer complex which is set at 10 ([1]; 1 mM): 10 ± 1%
- % inhibition of IFN-increased complex formation ([2]; 10 μM): 35 ± 15%
- % inhibition of IFN-increased complex formation ([2]; 100 μM): 78 ± 10%
- % inhibition of IFN-increased complex formation ([2]; 1 mM): 95 ± 16%

Compound: Cn1ccn(C)c1=S [Compound 8, N-Methylmethimazole]
- % increase over control relative to the maximal (5 mM) MMI-increased silencer complex which is set at 10 ([1]; 10 μM): 0%
- % increase over control relative to the maximal (5 mM) MMI-increased silencer complex which is set at 10 ([1]; 100 μM): 3 ± 2%
- % increase over control relative to the maximal (5 mM) MMI-increased silencer complex which is set at 10 ([1]; 1 mM): 9 ± 1%
- % inhibition of IFN-increased complex formation ([2]; 10 μM): 0%
- % inhibition of IFN-increased complex formation ([2]; 100 μM): 21 ± 18%
- % inhibition of IFN-increased complex formation ([2]; 1 mM): 86 ± 14%
- suppression of interferon-induced class II protein/DNA complexes compared with MMI (FIG. 8) ([2]; 1 mM): significantly more effective suppressors than MMI

Compound: Sc1nc2ccccc2[nH]1 [Compound 4, 2-Mercaptobenzimidazole]
- % increase over control relative to the maximal (5 mM) MMI-increased silencer complex which is set at 10 ([1]; 10 μM): 0%
- % increase over control relative to the maximal (5 mM) MMI-increased silencer complex which is set at 10 ([1]; 100 μM): 3 ± 0.5%
- % increase over control relative to the maximal (5 mM) MMI-increased silencer complex which is set at 10 ([1]; 1 mM): 9 ± 1.5%
- % increase over control relative to the maximal (5 mM) MMI-increased silencer complex which is set at 10 ([1]; 5 mM): Insol
- % inhibition of IFN-increased complex formation ([2]; 10 μM): 0%
- % inhibition of IFN-increased complex formation ([2]; 100 μM): 5%
- % inhibition of IFN-increased complex formation ([2]; 1 mM): 65 ± 15%
- % inhibition of IFN-increased complex formation ([2]; 5 mM): Insol

Compound: CSc1nccn1C [Compound 7, S-Methylmethimazole]
- % increase over control relative to the maximal (5 mM) MMI-increased silencer complex which is set at 10 ([1]; 10 μM): 0%
- % increase over control relative to the maximal (5 mM) MMI-increased silencer complex which is set at 10 ([1]; 100 μM): 2 ± 1%
- % increase over control relative to the maximal (5 mM) MMI-increased silencer complex which is set at 10 ([1]; 1 mM): 6 ± 0.5%
- % inhibition of IFN-increased complex formation ([2]; 10 μM): 0%
- % inhibition of IFN-increased complex formation ([2]; 100 μM): 16 ± 11%
- % inhibition of IFN-increased complex formation ([2]; 1 mM): 74 ± 13%
- suppression of interferon-induced class II protein/DNA complexes compared with MMI (FIG. 8) ([2]; 1 mM): significantly more effective suppressors than MMI

Compound: Cc1ncc([N+](=O)[O-])n1CCO [Compound 2, 2-Methyl-5-nitro-1-imidazole ethanol]
- % increase over control relative to the maximal (5 mM) MMI-increased silencer complex which is set at 10 ([1]; 10 μM): 0%
- % increase over control relative to the maximal (5 mM) MMI-increased silencer complex which is set at 10 ([1]; 100 μM): 0%
- % increase over control relative to the maximal (5 mM) MMI-increased silencer complex which is set at 10 ([1]; 1 mM): 5 ± 1%
- % increase over control relative to the maximal (5 mM) MMI-increased silencer complex which is set at 10 ([1]; 5 mM): 10 ± 2%
- % inhibition of IFN-increased complex formation ([2]; 10 μM): 0%
- % inhibition of IFN-increased complex formation ([2]; 100 μM): 0%
- % inhibition of IFN-increased complex formation ([2]; 1 mM): 55 ± 14%
- suppression of interferon-induced class II protein/DNA complexes compared with MMI (FIG. 8) ([2]; 1 mM): significantly more effective suppressors than MMI
- % inhibition of IFN-increased complex formation ([2]; 5 mM): 95 ± 10%

Compound: Cn1ccnc1S [Compound 1, 1-Methylimidazole-2-thiol]
- % increase over control relative to the maximal (5 mM) MMI-increased silencer complex which is set at 10 ([1]; 10 μM): 0%
- % increase over control relative to the maximal (5 mM) MMI-increased silencer complex which is set at 10 ([1]; 100 μM): 0%
- % increase over control relative to the maximal (5 mM) MMI-increased silencer complex which is set at 10 ([1]; 1 mM): 2 ± 1%
- % increase over control relative to the maximal (5 mM) MMI-increased silencer complex which is set at 10 ([1]; 5 mM): 10%
- % inhibition of IFN-increased complex formation ([2]; 10 μM): 0%
- % inhibition of IFN-increased complex formation ([2]; 100 μM): 0%
- % inhibition of IFN-increased complex formation ([2]; 1 mM): 10 ± 5%
- % inhibition of IFN-increased complex formation ([2]; 5 mM): 85 ± 12%

Compound: Cc1cnc(S)n1C [Compound 9, 5-Methylmethimazole]
- % increase over control relative to the maximal (5 mM) MMI-increased silencer complex which is set at 10 ([1]; 10 μM): 0%
- % increase over control relative to the maximal (5 mM) MMI-increased silencer complex which is set at 10 ([1]; 100 μM): 0%
- % increase over control relative to the maximal (5 mM) MMI-increased silencer complex which is set at 10 ([1]; 1 mM): 1.5 ± 1.5%
- % increase over control relative to the maximal (5 mM) MMI-increased silencer complex which is set at 10 ([1]; 5 mM): 2.5 ± 1%
- % inhibition of IFN-increased complex formation ([2]; 10 μM): 0%
- % inhibition of IFN-increased complex formation ([2]; 100 μM): 0%
- % inhibition of IFN-increased complex formation ([2]; 1 mM): 25 ± 15%
- % inhibition of IFN-increased complex formation ([2]; 5 mM): 40 ± 20%

Compound: Sc1ncc[nH]1 [Compound 3, 2-Mercaptoimidazole]
- % increase over control relative to the maximal (5 mM) MMI-increased silencer complex which is set at 10 ([1]; 10 μM): 0%
- % increase over control relative to the maximal (5 mM) MMI-increased silencer complex which is set at 10 ([1]; 100 μM): 0%
- % increase over control relative to the maximal (5 mM) MMI-increased silencer complex which is set at 10 ([1]; 1 mM): 0%
- % increase over control relative to the maximal (5 mM) MMI-increased silencer complex which is set at 10 ([1]; 5 mM): 0%
- % inhibition of IFN-increased complex formation ([2]; 10 μM): 0%
- % inhibition of IFN-increased complex formation ([2]; 100 μM): 0%
- % inhibition of IFN-increased complex formation ([2]; 1 mM): 0%
- % inhibition of IFN-increased complex formation ([2]; 5 mM): 0%
